Consider one molecule from US20220064238A1, “Methods And Compositions For Modifying Transcription Factor Activity by Targeting The Human Mediator Complex Using Cell Penetrating Memetic Peptides And Methods of Treating Cancer Using The Same” (The Regents of the University of Colorado, a body corporate, priority 2020, published 2022).

Test [1] concerns Gal4-VP16 / Mediator. As to the kind of experiment: In vitro transcription on chromatin templates activated by Gal4-VP16. The class given is biochemical, human. The note with it: read-out: IC50, transcription in the presence of Gal4-VP16. From the text:
Finally, we assessed whether the bivalent peptide would selectively block p53-dependent transcription compared with VP16, a viral activation domain. Whereas p53 and VP16 both interact with Mediator, they do so through different subunits (MED17 and MED25, respectively).
In vitro transcription: Chromatinized templates and in vitro transcription assays were generated and completed as described (Knuesel et al., 2009). Briefly, each activator (GAL4-p53AD or GAL4-VP16AD) was titrated to yield maximum transcription. While the activator bound the template, the general transcription factors (GTFs) were mixed in 0.1 M HEMG (10 mM HEPES pH 7.6, 100 mM KCl, 0.1 mM EDTA, 10% glycerol, 5.5 mM MgCl2) to give approximate final concentrations of 40 nM TFIIA, 10 nM IIB, 0.8 nM TFIID, 10 nM TFIIE, 10 nM TFIIF, 0.5 nM TFIIH and 2 nM pol II. A non-limiting amount of Mediator was then diluted in a separate salts mix (10 mM HEPES pH 7.6, 100 mM KCl, 2.5% PVA, 2.5% PEG, 7.5 mM MgCl2), along with 400 U of RNAseOUT, about 300 ng PC4 and about 300 ng HMGB1. On ice, the desired concentration of peptide was then added to the Mediator mix, followed by the GTF mix at a 5:11 ratio. The GTFs, Mediator and peptide were then incubated at least 5 minutes at 30° C. […]

Test [2] relates to p53-target genes in HCT116 cells. As to the kind of experiment: RT-qPCR of p53 target genes in HCT116 cells. The class given is cell-based, human. The note with it: HCT116, 3-hour Nutlin treatment. The method, then:
Experimental time frame for RNA-Seq experiments: In a series of experiments in SJSA cells, we initially tested whether the bivalent peptide could cause a phenotypic change. […] We next determined that a 6-hour Nutlin treatment time was the shortest that would still trigger significant SJSA cell death within 24-48 hours. However, we obtained similar results with 6-hour (or 12-hour) Nutlin treatment times (±bivalent peptide). We then tested the prospect of RNA-Seq experiments, in hopes that gene expression changes and shorter time frames would allow an assessment of bivalent peptide effects. Here, we used HCT116 cells, which show strong transcriptional response to Nutlin (Allen et al., 2014). For RNA-Seq experiments, we needed a time frame long enough to allow accumulation of p53 target gene mRNAs but short enough to enable maximum activity of the bivalent peptide (e.g. prior to its secretion, export, and/or degradation). Using RT-qPCR assays, we confirmed that a 3-hour Nutlin treatment was a minimum amount of time to reliably detect induction of p53 target genes. […] RNA-Seq data have been uploaded on GEO: GSE135870.
On the technique in general: In qPCR the cycle at which signal appears reflects the starting amount.

Bridge positions count the residues as written; N and C are the ends. Square brackets hold non-standard residues; d marks the D form. Peptide text beside a SMILES is read from it. PEG6 = NCCOCCOCCOCCOCCOCCOCCC(=O)O; R8 = C=CCCCCCC[C@@](C)(N)C(=O)O; S5 = C=CCCC[C@](C)(N)C(=O)O

What is called IC50 is the concentration that inhibits the measured activity by half.

For the molecule `CC[C@H](C)[C@H](NC(=O)[C@H](CC(=O)O)NC(=O)[C@H](CC(=O)O)NC(=O)[C@@H]1CCCN1C(=O)[C@H](CO)NC(=O)[C@H](CC(C)C)NC(=O)CCOCCOCCOCCOCCOCCOCCNC(=O)[C@H](CCCNC(=N)N)NC(=O)[C@H](CCCNC(=N)N)NC(=O)[C@]1(C)CCCC=CCCCCCC[C@@](C)(NC(=O)[C@H](Cc2ccccc2)NC(=O)[C@H](CCCNC(=N)N)NC(=O)[C@H](CCC(=O)O)NC(=O)[C@H](CCC(N)=O)NC(=O)[C@H](CO)NC(=O)[C@H](CCCNC(=N)N)NC(C)=O)C(=O)N[C@@H](CC(=O)O)C(=O)N[C@@H](CC(C)C)C(=O)N[C@@H](Cc2c[nH]c3ccccc23)C(=O)N[C@@H](CCCCN)C(=O)N[C@@H](CCCNC(=N)N)C(=O)N[C@@H](CC(C)C)C(=O)N1)C(=O)N[C@@H](CCC(=O)O)C(=O)N[C@@H](CCC(N)=O)C(=O)N[C@@H](Cc1c[nH]c2ccccc12)C(=O)N[C@@H](Cc1ccccc1)C(=O)N[C@H](C(=O)N[C@@H](CCC(=O)O)C(=O)N[C@@H](CC(=O)O)C(N)=O)[C@@H](C)O` [bivalent peptide] (Ac-RSQERF[R8]DLWKRL[S5]RR[PEG6]LSPDDIEQWFTED-NH2; staple 7-14; N-terminus assumed), in test [1], the IC50 amounted to 0.424 µM. Further, the “activation of p53-target genes by RT-qPCR” value in test [2] was “blocking activation of p53-target genes”.
